The values below come from ChEMBL document CHEMBL1130670, “Potent bicyclic lactam inhibitors of thrombin: Part I: P3 modifications” (Bioorg Med Chem Lett, 1998).

The target in assay [1] is Prothrombin (Rattus norvegicus) (UniProt P18292).
Description: Compound was tested for the antithrombic effect in rat arterial thrombosis model and expressed as thrombin time(TT)
The target is the same in assay [2]. This is another data set of the same source.
Description: Compound was tested for the antithrombic effect in rat arterial thrombosis model and expressed as activated partial thromboplastin time(PTT)
The target is the same in assay [3]. This is another data set of the same source.
Description: Compound was tested for the antithrombic effect in rat arterial thrombosis model and expressed as mean occlusion time(MOT)
In the next assay the target is Prothrombin (Homo sapiens, UniProt P00734). Briefly: Binding affinity against thrombin.
Throughout, for APTT: test concentration or dose not given here.
Throughout, for TT: test concentration or dose not given here.

`N=C(N)NCCCC(NC(=O)[C@@H]1CC[C@H]2CN(C(=O)COc3ccccc3)CC(=O)N21)C(=O)c1nccs1` (some centres undefined) yielded a TT in assay [1] of 248 s. The compound also yielded an APTT in assay [2] of 31.5 s. This compound showed an MOT in assay [3] of 37.8 min. In addition, at Prothrombin, the affinity, expressed as Ki, was 16 nM.

Take `NC(N)=NCCCC(NC(=O)[C@@H]1CC[C@H]2CN(C(=O)[C@@H](N)Cc3c[nH]c4ccccc34)CC(=O)N21)C(=O)c1nccs1` (stereo in doubt; 34) [listing 1 of 2 here]: affinity on Prothrombin was put at a Ki of 0.96 nM.

`N=C(N)NCCCC(NC(=O)[C@@H]1CC[C@H]2CN(C(=O)CCc3ccc(Cl)c(Cl)c3)CC(=O)N21)C(=O)c1nccs1` (some centres undefined): at Prothrombin, affinity was put at a Ki of 0.106 nM.

In assay [1], `N=C(N)NCCCC(NC(=O)[C@@H]1CC[C@H]2CN(C(=O)CCC3CCCCC3)CC(=O)N21)C(=O)c1nccs1` (some centres undefined) had a TT of 320 s. The APTT in assay [2] was determined as 52.4 s. The compound also came in with an MOT in assay [3] of 25.4 min. The affinity on Prothrombin corresponds to a Ki of 24 nM.

As for `N=C(N)NCCCC(NC(=O)[C@@H]1CC[C@H]2CN(C(=O)Cc3ccccc3)CC(=O)N21)C(=O)c1nccs1` (some centres undefined), the TT in assay [1] came out at 387 s. In addition, in assay [2], the APTT was found to be 79.2 s. Moreover, the MOT in assay [3] is above 60 min. For the same compound, the affinity on Prothrombin corresponds to a Ki of 2.5 nM.

With `N=C(N)NCCCC(NC(=O)[C@@H]1CC[C@H]2CN(C(=O)CCc3ccc4ccccc4c3)CC(=O)N21)C(=O)c1nccs1` (some centres undefined), the inhibition constant Ki (usually the equilibrium dissociation constant of an inhibitor or competing ligand from its target) at Prothrombin is 0.5 nM.

Consider `N=C(N)NCCCC(NC(=O)[C@@H]1CC[C@H]2CN(C(=O)[C@@H](O)c3ccccc3)CC(=O)N21)C(=O)c1nccs1` (stereo in doubt; 29) [listing 1 of 2 here], for which the TT in assay [1] was found to be 476 s. In assay [2], this compound displayed an APTT of 49.1 s. This compound also came in with an MOT in assay [3] above 60 min.

Compound `NC(N)=NCCCC(NC(=O)[C@@H]1CC[C@H]2CN(C(=O)[C@@H](N)Cc3c[nH]c4ccccc34)CC(=O)N21)C(=O)c1nccs1` (stereo in doubt; 33) had an inhibition constant (Ki) on Prothrombin of 75.3 nM.

Turning to `NC(N)=NCCCC(NC(=O)[C@@H]1CC[C@H]2CN(C(=O)[C@@H](N)Cc3ccc(F)cc3)CC(=O)N21)C(=O)c1nccs1` (some centres undefined), the TT in assay [1] is 557 s. Further, in assay [2], the APTT was determined as 44.2 s. Moreover, the MOT in assay [3] worked out at 47.7 min. On Prothrombin, this compound yielded an inhibition constant (Ki) of 3 nM.

Take `NC(N)=NCCCC(NC(=O)[C@@H]1CC[C@H]2CN(C(=O)[C@@H](N)Cc3c[nH]c4ccccc34)CC(=O)N21)C(=O)c1nccs1` (stereo in doubt; 34) [listing 2 of 2 here]: the TT in assay [1] is 929 s. In assay [2], this compound displayed an APTT of 188 s. In assay [3], this compound returned an MOT above 60 min.

On to `N=C(N)NCCCC(NC(=O)[C@@H]1CC[C@H]2CN(C(=O)[C@@H](O)Cc3ccccc3)CC(=O)N21)C(=O)c1nccs1` (some centres undefined), for which, in assay [1], the TT was determined as 679 s. Also, in assay [2], the APTT was found to be 463 s. In assay [3], this compound showed an MOT above 60 min. Moreover, on Prothrombin, the inhibition constant Ki was determined as 4.4 nM.

Consider `Cc1ccc(CCC(=O)N2CC(=O)N3[C@@H](CC[C@H]3C(=O)NC(CCCN=C(N)N)C(=O)c3nccs3)C2)cc1` (some centres undefined), for which the TT in assay [1] is above 999 s. The APTT in assay [2] is 88 s. Further, the MOT in assay [3] was above 60 min. The same compound showed an inhibitory constant (Ki) at Prothrombin of 0.5 nM.

In turn, `N=C(N)NCCCC(NC(=O)[C@@H]1CC[C@H]2CN(C(=O)CCCc3ccccc3)CC(=O)N21)C(=O)c1nccs1` (some centres undefined) had a TT in assay [1] of 494 s. Besides, the APTT in assay [2] was determined as 120 s. Moreover, in assay [3], the MOT was above 60 min. Further, at Prothrombin, the affinity corresponds to a Ki of 1.2 nM.

Compound `N=C(N)NCCCC(NC(=O)[C@@H]1CC[C@H]2CN(CCCc3ccccc3)CC(=O)N21)C(=O)c1nccs1` (some centres undefined) returned a TT in assay [1] of 122 s. Also, the APTT in assay [2] was found to be 30.5 s. The compound further came in with an MOT in assay [3] of 28.3 min. This compound gave a Ki on Prothrombin of 17 nM.

`N=C(N)NCCCC(NC(=O)[C@@H]1CC[C@H]2CN(C(=O)[C@@H](O)c3ccccc3)CC(=O)N21)C(=O)c1nccs1` (stereo in doubt; 28): the affinity on Prothrombin corresponds to a Ki of 84 nM.

With `N=C(N)NCCCC(NC(=O)[C@@H]1CC[C@H]2CN(C(=O)OCc3ccccc3)CC(=O)N21)C(=O)c1nccs1` (some centres undefined), on Prothrombin, affinity was put at a Ki of 50 nM.

With `N=C(N)NCCCC(NC(=O)[C@@H]1CC[C@H]2CN(C(=O)CCc3ccccc3)CC(=O)N21)C(=O)c1nccs1` (some centres undefined), the TT in assay [1] came out at 381 s. In assay [2], this compound came in with an APTT of 44.3 s. In addition, the MOT in assay [3] is 42.2 min.

On Prothrombin, `N=C(N)NCCCC(NC(=O)[C@@H]1CC[C@H]2CN(C(=O)CCc3ccccc3F)CC(=O)N21)C(=O)c1nccs1` (some centres undefined) gave an inhibition constant (Ki) of 0.92 nM.

`N=C(N)NCCCC(NC(=O)[C@@H]1CC[C@H]2CN(C(=O)CCc3ccccc3C(F)(F)F)CC(=O)N21)C(=O)c1nccs1` (some centres undefined) displayed a TT in assay [1] above 999 s. This compound displayed an APTT in assay [2] of 90 s. The MOT in assay [3] was above 60 min. On Prothrombin, this compound returned a Ki of 0.5 nM.

For `N=C(N)NCCCC(NC(=O)[C@@H]1CC[C@H]2CN(C(=O)C3Cc4ccccc4CN3)CC(=O)N21)C(=O)c1nccs1` (some centres undefined), the inhibition constant Ki on Prothrombin is 32 nM.

`N=C(N)NCCCC(NC(=O)[C@@H]1CC[C@H]2CN(C(=O)[C@@H](N)Cc3ccc(O)cc3)CC(=O)N21)C(=O)c1nccs1` (stereo in doubt; 32) registered a Ki on Prothrombin of 18 nM.

As to `COc1ccc(CCC(=O)N2CC(=O)N3[C@@H](CC[C@H]3C(=O)NC(CCCN=C(N)N)C(=O)c3nccs3)C2)cc1` (some centres undefined), the TT in assay [1] came to 633 s. Further, the APTT in assay [2] came to 55.2 s. Moreover, in assay [3], the MOT is above 60 min. For the same compound, at Prothrombin, the inhibition constant (Ki) is 0.5 nM.

`NC(N)=NCCCC(NC(=O)[C@@H]1CC[C@H]2CN(C(=O)[C@@H](N)Cc3ccc(O)cc3)CC(=O)N21)C(=O)c1nccs1` (stereo in doubt; 32) registered a TT in assay [1] of 433 s. The compound also registered an APTT in assay [2] of 76 s. Besides, in assay [3], the MOT amounted to 53 min.

With `N=C(N)NCCCC(NC(=O)[C@@H]1CC[C@H]2CN(C(=O)CCOc3ccccc3)CC(=O)N21)C(=O)c1nccs1` (some centres undefined), the TT in assay [1] was 276 s. The same compound gave an APTT in assay [2] of 45.2 s. Also, in assay [3], the MOT stood at 47.7 min. Moreover, at Prothrombin, the inhibition constant (Ki) was found to be 5 nM.

In turn, `N=C(N)NCCCC(NC(=O)[C@@H]1CC[C@H]2CN(C(=O)[C@@H](N)Cc3ccc(O)cc3)CC(=O)N21)C(=O)c1nccs1` (stereo in doubt; 31) registered a Ki at Prothrombin of 160 nM.

Compound `N=C(N)NCCCC(NC(=O)[C@@H]1CC[C@H]2CN(C(=O)NCc3ccccc3)CC(=O)N21)C(=O)c1nccs1` (some centres undefined) gave an inhibitory constant (Ki) at Prothrombin of 58 nM.

In the case of `N=C(N)NCCCC(NC(=O)[C@@H]1CC[C@H]2CN(C(=O)c3ccccc3)CC(=O)N21)C(=O)c1nccs1` (some centres undefined), in assay [1], the TT turned out to be 144 s. Moreover, the APTT in assay [2] stood at 25.5 s. This compound also came in with an MOT in assay [3] of 45.8 min.

Turning to `N=C(N)NCCCC(NC(=O)[C@@H]1CC[C@H]2CN(C(=O)CCc3cccc4ccccc34)CC(=O)N21)C(=O)c1nccs1` (some centres undefined), in assay [1], the TT is above 600 s. The APTT in assay [2] worked out at 217 s. The compound further showed an MOT in assay [3] of 33.2 min. For the same compound, the affinity at Prothrombin, expressed as Ki, was 0.35 nM.

Regarding `N=C(N)NCCCC(NC(=O)[C@@H]1CC[C@H]2CN(C(=O)CCc3ccccn3)CC(=O)N21)C(=O)c1nccs1` (some centres undefined), in assay [1], the TT was 557 s. In assay [2], this compound registered an APTT of 44.2 s. The same compound had an MOT in assay [3] of 47.6 min. The compound further yielded a Ki on Prothrombin of 3 nM.

Compound `N=C(N)NCCCC(NC(=O)[C@@H]1CC[C@H]2CN(C(=O)[C@@H](O)c3ccccc3)CC(=O)N21)C(=O)c1nccs1` (stereo in doubt; 29) [listing 2 of 2 here] yielded an inhibitory constant (Ki) at Prothrombin of 16 nM.
